Test [1] deals with Ustilaginoidea virens. In words: In vitro activity of pydiflumetofen and other active ingredients against rice false smut, mycelial growth method (Example 2). The conditions noted are these: for EC50: mycelial growth, same protocol as Example 1. Format: cell-based. The protocol: (§1) Ustilaginoidea virens, the pathogens that cause rice false smut, were isolated from infected rice tissues and stored at 4° C. Pathogen was applied to the PSA plate and incubated at 28° C. for 7 days. Mycelial plugs at the edge of the colony were prepared by hole puncher with a diameter of 5 mm. Pydiflumetofen was dissolved into dimethyl sulfoxide (DMSO) to get 4×10^4 μg/mL for stock solution. Mixing PSA culture medium with stock solution of pydiflumetofen to get different series of concentration: 0, 0.0005, 0.0010, 0.0025, 0.0040, 0.0055, and 0.007 μg/mL. Using the mycelial growth method, the mycelial plugs were shifted to the center of PSA medium plates containing different pydiflumetofen concentrations. […] EC50 values were determined by the fitted regression line of the log-transformed percentage inhibition plotted against the log-transformed fungicide concentration.
Using the same protocol as for Example 1 (above), the activity of pydiflumetofen against rice false smut was compared to that of other fungicidal active ingredients.
EC50 values were determined by the fitted regression line of the log-transformed percentage inhibition plotted against the log-transformed fungicide concentration. The lower the EC50 value, the higher the activity.

The test system of test [2] is rice false smut. In words: Field trial, efficacy against rice false smut at 77 days after application (Example 4). The conditions noted are these: 75 gai/ha. In kind it is in vivo, Ustilaginoidea virens. The source says:
(§2) • Application Method: Foliar Spray • Water Volume: 450 L/ha • Number of Applications: 1 • Application Timing: BBCH 45-47

The test system of test [3] is rice false smut. Briefly: Field trial, efficacy against rice false smut at 38 days after application (Example 3). The conditions noted are these: 60-75 gai/ha. Format: in vivo, Ustilaginoidea virens.
Source text: as §2
A scale/index of 0 to 9 was used to define the level of disease severity, wherein 0 represents a healthy plant and 9 represents high levels/severe symptoms of disease. Each plant was graded on this 0 to 9 scale and the Disease Index calculated using the following formula:
Disease Index (DI)=[sum(class frequency×scpre of rating class)]/[(total number of plants)×(maximal disease index)]×100.

Test [4] has as its system Ustilaginoidea virens. In words: In vitro activity against rice false smut by mycelial growth method (Example 1). The following applies: for Average mycelium growth diameter: untreated 35.63; for Mycelium diameter, Average: average of 8, untreated 40.63; for Mycelium diameter: individual replicates 1-8. Format: cell-based. The procedure:
Example 1-In Vitro Activity of Pydiflumetofen Against Rice False Smut (Caused by Ustilaginoidea Virens) by Mycelial Growth Method
as §1
As stated above, EC50 values were determined by the fitted regression line of the log-transformed percentage inhibition plotted against the log-transformed fungicide concentration. The lower the EC50 value, the higher the activity.

[5] abbreviates: Ustilaginoidea virens, read-out: EC50.

Converted amounts (≈) assume the structure as drawn. “And” between values parts separate entries of the source, which are not always exact repeats. Equal values may be shown once.

As a reminder, the inhibition is the change of the read-out against control, counted positive when it falls. Lower therefore signals a response near the control.

Epoxiconazole yielded an EC50 in test [1] of 0.0086 ppm.
For the compound `CC(C)(C)C(O)(CCc1ccc(Cl)cc1)Cn1cncn1` (stereo not drawn) [Tebuconazole], the EC50 in test [1] (setting [5]) worked out at 0.0761 µg/mL (≈ 0.247 µM).
`CON(C(=O)c1cn(C)nc1C(F)F)C(C)Cc1c(Cl)cc(Cl)cc1Cl` (stereo not drawn) [Pydiflumetofen, 3-(difluoromethyl)-N-methoxy-1-methyl-N-[1-methyl-2-(2,4,6-trichloro-phenyl)ethyl]-1H-pyrazole-4-carboxamide]: the “control against rice false smut in the field (in words)” value in test [2] and in test [3] was “good control” in each case. Besides, the EC50 in test [1] (setting [5]) was found to be 0.0045 µg/mL (≈ 0.0105 µM); in test [4] (Ustilaginoidea virens, 336 h, mycelial growth, PSA, 28° C., 14 days), 0.0037 µg/mL (≈ 0.00867 µM). The “activity against Ustilaginoidea virens (in words)” value in test [1] (compared to fungicides commonly used to treat rice false smut) and in test [4] (mycelial growth) was “very high activity” throughout. The “Average mycelium growth diameter” value in test [4] (0.0005 μg/mL, 28° C., 14 days) is given as 33.13 mm; in test [4] (0.0010 μg/mL, 28° C., 14 days) it was 28.63 mm; in test [4] (0.0025 μg/mL, 28° C., 14 days), 20.75 mm; in test [4] (0.0040 μg/mL, 28° C., 14 days), 19.50 mm; in test [4] (0.0055 μg/mL, 28° C., 14 days) it was 17.75 mm; in test [4] (0.0070 μg/mL, 28° C., 14 days), 7.75 mm. Besides, the “Mycelium diameter, Average” value in test [4] (0.0005 μg/mL, 28° C., 14 days) is 38.13 mm; in test [4] (0.0010 μg/mL, 28° C., 14 days), 33.63 mm; in test [4] (0.0025 μg/mL, 28° C., 14 days) it was 25.75 mm; in test [4] (0.0040 μg/mL, 28° C., 14 days), 24.50 mm; in test [4] (0.0055 μg/mL, 28° C., 14 days) it was 22.75 mm; in test [4] (0.0070 μg/mL, 28° C., 14 days), 12.75 mm. Further, the Mycelium diameter in test [4] (0.0005 μg/mL, 28° C., 14 days) is 37 mm and 38 mm (5×) and 39 mm (2×); in test [4] (0.0010 μg/mL, 28° C., 14 days) it was 32 mm (2×) and 34 mm (2×) and 33 mm (2×) and 35 mm and 36 mm; in test [4] (0.0025 μg/mL, 28° C., 14 days), 25 mm (4×) and 26 mm (3×) and 28 mm; in test [4] (0.0040 μg/mL, 28° C., 14 days), 24 mm (4×) and 25 mm (4×); in test [4] (0.0055 μg/mL, 28° C., 14 days), 22 mm (3×) and 23 mm (4×) and 24 mm; in test [4] (0.0070 μg/mL, 28° C., 14 days), 13 mm (6×) and 12 mm (2×). Also, 0.0005 µg/mL produced 7.02% inhibition in test [4] (Ustilaginoidea virens, 336 h, 0.0005 μg/mL, 28° C., 14 days). In test [4] (Ustilaginoidea virens, 336 h, 0.0010 μg/mL, 28° C., 14 days), this compound displayed an inhibition at 0.001 µg/mL of 19.6%. In addition, the inhibition at 0.0025 µg/mL in test [4] (Ustilaginoidea virens, 336 h, 0.0025 μg/mL, 28° C., 14 days) stood at 41.8%. The same compound came in with an inhibition at 0.004 µg/mL in test [4] (Ustilaginoidea virens, 336 h, 0.0040 μg/mL, 28° C., 14 days) of 45.3%. This compound also registered an inhibition at 0.0055 µg/mL in test [4] (Ustilaginoidea virens, 336 h, 0.0055 μg/mL, 28° C., 14 days) of 50.2%. In test [4] (Ustilaginoidea virens, 336 h, 0.0070 μg/mL, 28° C., 14 days), this compound displayed an inhibition at 0.007 µg/mL of 78.2%.
Take `CC1(C)CCC(Cc2ccc(Cl)cc2)C1(O)Cn1cncn1` (stereo not drawn) [Metconazole]: in test [1] (setting [5]), the EC50 amounted to 0.041 µg/mL (≈ 0.128 µM).
Consider `CCCC1COC(Cn2cncn2)(c2ccc(Cl)cc2Cl)O1` (stereo not drawn) [Propiconazole], for which the EC50 in test [1] (setting [5]) is 0.0205 µg/mL (≈ 0.0599 µM).
For the compound `OC(Cc1ccccc1Cl)(Cn1nc[nH]c1=S)C1(Cl)CC1` (stereo not drawn) [Prothioconazole], in test [1] (setting [5]), the EC50 worked out at 3.11 µg/mL (≈ 9.03 µM).
Take `CC(C1CC1)C(O)(Cn1cncn1)c1ccc(Cl)cc1` (stereo not drawn) [Cyproconazole]: the EC50 in test [1] (setting [5]) amounted to 0.0387 µg/mL (≈ 0.133 µM).
